According to patent US11071731B2, “Allosteric modulators of the mu opioid receptor” (Chiromics, LLC, priority 2017, dated 2021):

Columns and labels:
mu opioid receptor (MOR) [1] = target: T1, mu opioid receptor (MOR) (Homo sapiens, UniProt P35372); assay: PathHunter β-arrestin recruitment assay, PAM mode with EC20 endomorphin-1; type: cell-based; settings: for EC50: read-out: β-arr. EC50
Experimental: The effects of MOR PAMs and MOR SAMs on receptor activity were assayed using the PathHunter enzyme complementation assay technology (DiscoveRx, CA). A description of the technology employed is as follows.
Beta-Arrestin Pathway: The PathHunter β-arrestin assay monitors the activation of a GPCR in a homogenous, non-imaging assay format using a technology developed by DiscoveRx called Enzyme Fragment Complementation (EFC) with beta-galactosidase (β-Gal) as the functional reporter. […] EA is fused to β-Arrestin and ED is fused to the GPCR of interest. When the GPCR is activated and β-arrestin is recruited to the receptor, ED and EA complementation occurs, restoring β-gal activity, which is measured using chemiluminescent PathHunter Detection Reagents.
In this manner an EC50 for each test compound, and percent maximal response for each test compound, were determined for both the β-arrestin and cAMP pathways. Though the pharmacological effects of a given signal bias can be hypothesized (Raehal et al. (2011) Pharmacol. Rev. 63:1001-1019), it is not possible to know with certainty which bias ratio will be most advantageous in a clinical setting. […] Kenakin 2015a, supra. The information associated with the compounds detailed herein is the first large data set available for the prediction of ligand bias for an MOR PAM.

mu opioid receptor (MOR) [2] = target: T1, mu opioid receptor (MOR); assay: Hit Hunter cAMP signaling assay (adenylyl cyclase inhibition), PAM mode with EC20 endomorphin-1; type: cell-based
[3] = maximal response for β-arrestin recruitment
[4] = cAMP EC50, adenylyl cyclase inhibition
[5] = maximal response for adenylyl cyclase inhibition
[6] = adenylyl cyclase inhibition, read-out: cAMP EC50

T1 sequence (P35372 whole entry): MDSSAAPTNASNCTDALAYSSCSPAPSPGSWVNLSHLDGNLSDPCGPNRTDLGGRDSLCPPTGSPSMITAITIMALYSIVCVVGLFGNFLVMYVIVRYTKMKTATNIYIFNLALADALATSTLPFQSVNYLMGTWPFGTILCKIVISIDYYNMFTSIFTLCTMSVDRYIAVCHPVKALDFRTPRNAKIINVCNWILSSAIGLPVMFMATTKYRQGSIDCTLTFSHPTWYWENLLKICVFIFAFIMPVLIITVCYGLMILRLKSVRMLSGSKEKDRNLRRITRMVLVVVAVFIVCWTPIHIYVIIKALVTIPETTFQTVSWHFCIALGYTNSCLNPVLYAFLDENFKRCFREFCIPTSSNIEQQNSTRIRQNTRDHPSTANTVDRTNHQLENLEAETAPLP

SMILES | β-arr Max. Resp. (mu opioid receptor (MOR) [1]; [3]) | EC50 (mu opioid receptor (MOR) [1]; β-arrestin recruitment) | EC50 (mu opioid receptor (MOR) [2]; [4]) | cAMP Max. Resp. (mu opioid receptor (MOR) [2]; [5]) | EC50 (mu opioid receptor (MOR) [2]; [6]) | β-arr. Max Resp. (mu opioid receptor (MOR) [1]; maximal response for β-arrestin recruitment, Table 3) | EC50 (mu opioid receptor (MOR) [1]; β-arrestin recruitment, Table 3) | EC50 (mu opioid receptor (MOR) [2]; cAMP EC50 (nM), adenylyl cyclase inhibition, Table 3) | cAMP Max Resp. (mu opioid receptor (MOR) [2]; maximal response for adenylyl cyclase inhibition, Table 3) | β-arr Max. Resp. (mu opioid receptor (MOR) [1]; maximal response, β-arrestin recruitment) | cAMP Max. Resp. (mu opioid receptor (MOR) [2]; maximal response, adenylyl cyclase inhibition)
FC(F)(F)c1cccc(C2CCCCN2c2ccnc(Cl)c2)c1 (stereo not shown) [compound 359] | D (D represents a maximal response of < 40%) | < 700 nM | < 700 nM | D (D represents a maximal response of < 40%) | – | – | – | – | – | – | –
CC(=O)N1CCN(c2nc(Cl)ncc2F)C(c2cc(F)cc(C(F)(F)F)c2)C1 (racemic) [Compound 308] | E (E represents a maximal response of 40-60%) | > 2100 nM | – | F (F represents a maximal response of > 60%) | > 2100 nM | – | – | – | – | – | –
O=S(=O)(c1ccc(Cl)cc1)N1C2CCC(C2)C1c1ccc(F)c(Br)c1 (stereo not shown) [Compound 179] | F (F represents a maximal response of > 60%) | 700 to 2100 nM | – | D (D represents a maximal response of < 40%) | < 700 nM | – | – | – | – | – | –
Cc1ccc(C2CCCCN2c2nc(Cl)ncc2F)cc1Br (stereo not shown) [compound 281] | F (F represents a maximal response of > 60%) | 700 to 2100 nM | < 700 nM | D (D represents a maximal response of < 40%) | – | – | – | – | – | – | –
CC1CCN(S(=O)(=O)c2ccc(Cl)cc2)C1c1ccc(OC(F)(F)F)c(Br)c1 (mixture of isomers) [Compound 94] | F (F represents a maximal response of > 60%) | < 700 nM | – | D (D represents a maximal response of < 40%) | < 700 nM | – | – | – | – | – | –
Fc1ncc(F)c(N2CCCCC2c2cccc(C(F)(F)F)c2)n1 (stereo not shown) [compound 368] | D (D represents a maximal response of < 40%) | < 700 nM | < 700 nM | D (D represents a maximal response of < 40%) | – | – | – | – | – | – | –
CC1CCN(S(=O)(=O)c2ccc(Cl)cc2)C1c1ccc(Cl)cc1 (mixture of isomers) [Compound 88] | E (E represents a maximal response of 40-60%) | > 2100 nM | – | D (D represents a maximal response of < 40%) | > 2100 nM | – | – | – | – | – | –
Fc1ccc(Cl)nc1C1CCCCN1c1nc(Cl)ncc1F (stereo not shown) [compound 388] | D (D represents a maximal response of < 40%) | < 700 nM | < 700 nM | D (D represents a maximal response of < 40%) | – | – | – | – | – | – | –
COc1ccc(C2CCCCN2c2ccc(C(F)(F)F)cn2)cc1Br (stereo not shown) [compound 232] | F (F represents a maximal response of > 60%) | > 2100 nM | > 2100 nM | F (F represents a maximal response of > 60%) | – | – | – | – | – | – | –
O=S(=O)(c1cccc(Cl)c1)N1CCCCC1c1cccc(C(F)(F)F)c1 (stereo not shown) [Compound 21] | F (F represents a maximal response of > 60%) | > 2100 nM | – | F (F represents a maximal response of > 60%) | > 2100 nM | – | – | – | – | – | –
Fc1cnc(Cl)nc1N1CCCCC1c1ccccc1 (stereo not shown) [compound 362] | D (D represents a maximal response of < 40%) | < 700 nM | < 700 nM | D (D represents a maximal response of < 40%) | – | – | – | – | – | – | –
Fc1ccc(Cl)nc1N1CCCCC1c1cncnc1 (stereo not shown) [compound 382] | D (D represents a maximal response of < 40%) | < 700 nM | < 700 nM | D (D represents a maximal response of < 40%) | – | – | – | – | – | – | –
Cc1nc(C2CCCCN2c2nc(Cl)ncc2F)no1 (stereo not shown) [compound 409] | D (D represents a maximal response of < 40%) | < 700 nM | < 700 nM | D (D represents a maximal response of < 40%) | – | – | – | – | – | – | –
COc1cc(C2CCCCN2c2nc(Cl)ncc2F)ccn1 (stereo not shown) [compound 275] | D (D represents a maximal response of < 40%) | > 2100 nM | > 2100 nM | D (D represents a maximal response of < 40%) | – | – | – | – | – | – | –
Fc1ccc(C2CCCCN2Cc2cccc(Cl)n2)cc1Cl (stereo not shown) [compound 1] | F (F represents a maximal response of > 60%) | < 700 nM | < 700 nM | F (F represents a maximal response of > 60%) | – | 138 | 572 nM | 186 nM | 63 | – | –
COc1ccc(C2CCCCN2c2nc(Cl)ncc2F)cc1OC (stereo not shown) [compound 294] | D (D represents a maximal response of < 40%) | > 2100 nM | > 2100 nM | F (F represents a maximal response of > 60%) | – | – | – | – | – | – | –
Fc1cnc(Cl)nc1N1CCCCC1c1cc(Cl)cnc1F (stereo not shown) [compound 390] | D (D represents a maximal response of < 40%) | < 700 nM | < 700 nM | D (D represents a maximal response of < 40%) | – | – | – | – | – | – | –
FC(F)(F)c1cccc(C2CCCCN2Cc2cc(Cl)ccn2)n1 (stereo not shown) [compound 162] | F (F represents a maximal response of > 60%) | > 2100 nM | > 2100 nM | E (E represents a maximal response of 40-60%) | – | – | – | – | – | – | –
Cc1ncc(Cl)c(C2CCCCN2c2nc(Cl)ncc2F)n1 (stereo not shown) [compound 392] | D (D represents a maximal response of < 40%) | < 700 nM | < 700 nM | D (D represents a maximal response of < 40%) | – | – | – | – | – | – | –
CC1CCN(S(=O)(=O)c2ccc(Cl)cc2)C1c1cccc(Cl)c1 (stereo not shown) [Compound 107] | F (F represents a maximal response of > 60%) | > 2100 nM | – | D (D represents a maximal response of < 40%) | > 2100 nM | – | – | – | – | – | –
CCN(CC)c1ncc(F)c(N2CCCCC2c2cccc(C(F)(F)F)c2)n1 (stereo not shown) [compound 254] | D (D represents a maximal response of < 40%) | > 2100 nM | > 2100 nM | E (E represents a maximal response of 40-60%) | – | – | – | – | – | – | –
N#Cc1ccc(C2CCCCN2S(=O)(=O)c2ccc(Cl)cc2)cc1C(F)(F)F (racemic) [compound 49] | F (F represents a maximal response of > 60%) | > 2100 nM | – | F (F represents a maximal response of > 60%) | > 2100 nM | – | – | – | – | – | –
Cc1nccc(C2CCCCN2c2nc(Cl)ccc2F)n1 (stereo not shown) [compound 381] | D (D represents a maximal response of < 40%) | < 700 nM | – | D (D represents a maximal response of < 40%) | < 700 nM | – | – | – | – | – | –
Fc1cnc(Cl)nc1N1CCCCC1c1cccc(OC(F)(F)F)n1 (stereo not shown) [compound 131] | F (F represents a maximal response of > 60%) | 700 to 2100 nM | 700 to 2100 nM | D (D represents a maximal response of < 40%) | – | – | – | – | – | – | –
Fc1cnc(Cl)nc1N1CC(F)(F)CC1c1cccc(C(F)(F)F)c1 (stereo not shown) [compound 467] | – | > 2100 nM | – | – | > 2100 nM | – | – | – | – | F (F represents a maximal response of > 60%) | D (D represents a maximal response of < 40%)
O=S(=O)(c1ccc(Cl)cc1)N1CCCCC1c1ccc(Cl)c(C(F)(F)F)c1 (single isomer, unassigned) [compound 220] | F (F represents a maximal response of > 60%) | > 2100 nM | – | D (D represents a maximal response of < 40%) | 700 to 2100 nM | – | – | – | – | – | –
Cn1cnc2cc(C(F)(F)F)cc(C3CCCCN3c3nc(Cl)ncc3F)c21 (stereo not shown) [compound 300] | E (E represents a maximal response of 40-60%) | > 2100 nM | > 2100 nM | F (F represents a maximal response of > 60%) | – | – | – | – | – | – | –
